Test results taken from patent US20250134895A1, “METHODS AND COMPOSITIONS FOR TREATING ALPHA-SYNUCLEIN-MEDIATED NEURODEGENERATION” (UNIVERSITY HEALTH NETWORK, priority 2021, published 2025).

Test system: HSP70 mRNA
Assay: Real-time quantitative RT-PCR of HSP70 mRNA in rat primary cortical neurons
Type: cell-based
Conditions: 10 μM
Method: FIG. 18. […] Real-time quantitative RT-PCR was performed with 3 distinct primer sets for HSP70. β-Actin was used as the reference gene and the expression of HSP70 mRNA was analyzed by 2^−ΔΔCT method. The control group treated with DMSO was set as calibrator sample representing the 1×expression. Data are presented as mean±SEM. (n=3 independent experiments, unpaired two-tailed Student's t-test, ** p<0.01)
To investigate the mechanism underlying these drug effects, experiments were directed towards the potential involvement of molecular chaperone HSP70. […] To investigate the in silico predictions of HSP70 interactions with top drug candidates from the Cyclica proteome screening, fluorescence intensity was measured in V1 S-SV2 primary cortical rat neurons (FIGS. 15A and E) for potential effects on α-synuclein oligomers.
Total RNA was isolated from the cultured neurons on DIV 5 using RNeasy Mini Kit (50) (Qiagen, Cat #74104) according to the manufacturer's instructions. RNA quantity and purity were determined by spectrophotometric analysis (NanoDrop 2000c; Thermo Scientific). […] Quantitative real-time PCR was performed in the Quant Studio™ 5 Real-Time PCR System (ThermoFisher Scientific) using Power Track™ SYBR Green Master Mix (Invitrogen, Cat #A46109). […]

## Nc1nc(NC2CC2)c2ncn([C@H]3C=C[C@@H](CO)C3)c2n1 [Abacavir, abacavir]
  HSP70 mRNA levels compared with vehicle control: increased
